According to patent US9221875B2, “Amphiphilic peptides for treatment of keratitis” (Agency for Science, Technology and Research, priority 2013, dated 2015):
Values after ≈ are worked out from the molar mass of the structure shown. Where two headings read alike, the source gives them in different places. Square brackets hold non-standard residues; d marks the D form. Peptide text beside a SMILES is read from it.

Assays:
C. albicans [1] = conditions: 42 h
S. aureus [2] = conditions: 18 h
E. coli [3] = conditions: 18 h
S. epidermidis [4] = conditions: 18 h
in vitro [5] = type: cell-based; conditions: rat, NR8383 macrophage cells
Experimental: (§1) HeLa, HDF and NR8383 cells were respectively seeded at a densities of 1×10^4, 1×10^4 and 4×10^4 cells per well of a 96-well plate. Following overnight incubation, the cells were treated with 3.9 to 500 mg L^−1 of (IRIK)3-NH2 (SEQ ID NO: 21) and (VRVK)3-NH2 (SEQ ID NO: 20) for 24 h. For the adherent HeLa and HDF cell lines, the incubation media in each well were replaced with 100 μL of growth media and 10 μL of MTT solution (5 mg·ml^−1 in PBS). The cells were further incubated for 4 h at 37° C. according to the manufacturer's directions. Resultant formazan crystals formed in each well were solubilized using 150 μL of DMSO upon removal of growth media. A 100 μL aliquot from each well was then transferred to a new 96-well plate for determination of absorbance using a microplate spectrophotometer at wavelengths of 550 nm and 690 nm. Relative cell viability was expressed as [(A550−A690)sample/(A550−A690)control]×100%.
For the semi-adherent NR8383 cells, 20 μL of […]-BLUE® reagent was added into each well after treatment and the plate was incubated for a further 4 h. The fluorescence intensity readings of the wells were determined at excitation wavelength of 560 nm and emission wavelength of 590 nm using a microplate reader. […]

in vitro [6] = type: cell-based; conditions: human
Experimental: as §1

[7] = tested on: 5 microorganisms tested (S. epidermidis, S. aureus, E. coli, P. aeruginosa, C. albicans); experiment: Mean MIC over the panel and selectivity index (Example 1); type: cell-based
Experimental: Red blood cells suspension incubated with PBS was used as negative control.

P. aeruginosa [8] = conditions: 18 h
[9] = tested on: LPS-stimulated NO production in NR8383 rat macrophage cell line; experiment: Endotoxin neutralization assay (Griess nitrite); type: cell-based; conditions: 125 mg L^−1 peptide, 100 ng mL^−1 LPS, 18 h
Experimental: Untreated cells and cells that were stimulated with LPS alone served as the […] controls, respectively. The amount of NO produced was estimated by quantifying the concentration of the stable NO metabolite nitrite in the isolated supernatant fractions using the Griess reagent (1% sulphanilamide, 0.1% N-1-napthylethylenediamine dihydrochloride, 5% phosphoric acid) according to the manufacturer's protocol. The absorbance was measured at 540 nm and nitrite concentrations were determined using a standard reference curve prepared from known concentrations of NaNO2 solutions.

C. albicans [10] = tested on: C. albicans
S. aureus [11] = conditions: 18 h; remark: listed apart in the source
[12] = tested on: Vancomycin-resistant Enterococci; conditions: clinical isolate
S. aureus [13] = type: cell-based, Staphylococcus aureus; conditions: passage 20
C. neoformans = experiment: MBC against clinical isolates; type: cell-based; conditions: clinical isolate
[14] = tested on: Methicillin-resistant S. aureus; conditions: clinical isolate
[15] = tested on: 5 microorganisms tested (S. epidermidis, S. aureus, E. coli, P. aeruginosa, C. albicans); experiment: Mean MIC over the panel and selectivity index (Example 2)
[16] = tested on: five microorganisms tested (S. epidermidis, S. aureus, E. coli, P. aeruginosa, C. albicans); type: cell-based; conditions: 18 h
Experimental: After 18 h treatment of microorganisms with various concentrations of peptide (0.5×MIC, MIC and 2×MIC), the respective samples were subjected to a series of ten-fold dilutions and plated onto LB agar plates. The plates were then incubated overnight and counted for colony-forming units. A sample containing microbes treated with 10% (by volume) water was used as a control. Results are expressed as Log(CFU/mL) and as % Kill=[(cell count of control−survivor count of peptide-treated microbes)/cell count of control]×100.

[17] = tested on: S. aureus and P. aeruginosa; experiment: FE-SEM analysis of treated bacteria (Example 2); type: cell-based, Staphylococcus aureus, Pseudomonas aeruginosa; conditions: 125 mg L^−1, 2 h
Experimental: S. aureus and P. aeruginosa suspensions at ˜3×10^8 CFU mL^−1 (100 μL) were separately incubated with an equal volume of broth containing final concentrations of 10% (by volume) of HPLC water or 125 mg L^−1 of IK8-all D in a 96 well-plate for 2 h. Eight replicates of each condition was pooled into a microfuge tube, pelleted down at 4000 rpm for 5 min, and rinsed twice with PBS. The samples were then fixed with 4% formaldehyde at room temperature for 20 min, followed by rinsing with deionized water. Dehydration of the cells was performed using a series of graded ethanol solutions (35, 50, 75, 90, 95 and 100%). The samples were mounted on a copper tape, allowed to air-dry and sputter coated with platinum for imaging using a FE-SEM setup (JEOL JSM-7400F, Japan).

[18] = tested on: intracellular S. aureus in RAW264.7 mouse macrophages; type: cell-based, Staphylococcus aureus; conditions: intracellular in RAW264.7 mouse macrophages, 8 h
Experimental: RAW264.7 cells were seeded at a density of 4×10^5 per well of a 12-well plate. Following an overnight incubation, the cells were infected for 1 h with 13.3 μL of processed bacteria (3.0×10^8 CFU mL^−1) to achieve a 10:1 multiplicity of infection. The cells were then rinsed twice with 1×PBS and incubated with 1 mL of fresh media containing 50 μg mL^−1 gentamicin for 45 min to eliminate extracellular bacteria. The media in each well were removed and the infected cells were incubated with fresh media containing 10% (by volume) water or various concentrations of IK8-all D (2, 3.9, 7.8, 15.6 and 31.3 mg L^−1) for up to 4 and 8 h. At the respective time points, the infected cells were trypsinized, rinsed twice with PBS and lyzed with 800 μL of sterile water with incubation at room temperature for 10 min, followed by 5 min sonication. The intracellular bacteria count was determined by plating serially diluted cultures onto LB agar and enumerated after 24 h.

E. coli [19] = conditions: 18 h; remark: listed apart in the source
P. aeruginosa [20] = experiment: MBC against clinical isolates; type: cell-based; conditions: clinical isolate
S. epidermidis [21] = conditions: 18 h; remark: listed apart in the source
in vitro [22] = type: cell-based; conditions: mouse, RAW264.7 macrophage cells
Experimental: RAW264.7 and WI-38 cells were respectively seeded at a density of 1.5×10^4 and 1×10^4 per well of a 96-well plate. Following overnight incubation, the cells were treated with 1.0 to 125 mg L^−1 of IK8-all D for 48 h. Subsequently, the incubation media in each well were replaced with 100 μL of growth media and 10 μL of MTT solution (5 mg·ml^−1 in PBS) and the cells were incubated for 4 h at 37° C. according to the manufacturer's directions. Resultant formazan crystals formed in each well were solubilized using 150 μL of DMSO upon removal of growth media. A 100 μL aliquot from each well was then transferred to a new 96-well plate for determination of absorbance using a microplate spectrophotometer at wavelengths of 550 nm and 690 nm. Relative cell viability was expressed as [(A550−A690)sample/(A550−A690)control]×100%.

E. coli [23] = type: cell-based, Escherichia coli; conditions: end of the experiment (up to 20 passages)
[24] = tested on: clinically isolated drug resistant microorganisms; experiment: MBC comparison over clinical isolates; type: cell-based; conditions: antibacterial activities
P. aeruginosa [25] = conditions: 18 h; remark: listed apart in the source
trypsin and proteinase K = type: in vitro ADME
Experimental: One of the major factors limiting the clinical utility of AMPs lies in their instability to rapid degradation by proteases which are present abundantly in biological fluids and/or secreted by microorganisms. In order to evaluate the proteolytic stability of the designed β-sheet forming peptides, the D- and L-isoforms of the n=2 peptide sequence (IK8-all D or IK8-all L, respectively) were treated with the broad spectrum serine proteases, trypsin and proteinase K, for 6 h and evaluated their antimicrobial activities against S. aureus, E. coli and P. aeruginosa. […] The structural integrity of synthetic peptides following treatment with both proteases was also evaluated using MALDI-TOF mass spectroscopy. […] The cleavage sites of both enzymes for the IK8-all L peptide are illustrated in FIG. 19a with the mass spectra peaks assigned to the major fragments.

[26] = tested on: clinically isolated Mycobacterium tuberculosis
rabbit red blood cells = type: cell-based; conditions: red cells of rabbit, 1 h

## CC[C@H](C)[C@H](N)C(=O)N[C@@H](CCCNC(=N)N)C(=O)N[C@H](C(=O)N[C@@H](CCCCN)C(=O)N[C@H](C(=O)N[C@@H](CCCNC(=N)N)C(=O)N[C@H](C(=O)N[C@@H](CCCCN)C(=O)N[C@H](C(=O)N[C@@H](CCCNC(=N)N)C(=O)N[C@H](C(=O)N[C@@H](CCCCN)C(N)=O)[C@@H](C)CC)[C@@H](C)CC)[C@@H](C)CC)[C@@H](C)CC)[C@@H](C)CC [(IRIK)3-NH2] (H-IRIKIRIKIRIK-NH2; N-terminus assumed)
C. albicans [1]
  MIC C. albicans: 125 µg/mL (≈ 80.7 µM)
S. aureus [2]
  MIC S. aureus: 62.5 µg/mL (≈ 40.3 µM)
E. coli [3]
  MIC E. coli: 125 µg/mL (≈ 80.7 µM)
S. epidermidis [4]
  MIC S. epidermidis: 1.0 µg/mL (≈ 0.646 µM)
In vitro [5]
  viability at 24 h, 125 µg/mL: > 80%
In vitro [6]; HDF dermal fibroblast cells
  viability at 24 h, 125 µg/mL: > 80%
[7]
  GM, geometric mean of MIC values for the 5 microorganisms tested: 162.7 µg/mL
P. aeruginosa [8]
  MIC P. aeruginosa: 500 µg/mL (≈ 323 µM)
[9]
  nitrite concentration, LPS-stimulated NO production: reduced to the control level

## CC(C)[C@H](N)C(=O)N[C@@H](CCCNC(=N)N)C(=O)N[C@H](C(=O)N[C@@H](CCCCN)C(=O)N[C@H](C(=O)N[C@@H](CCCNC(=N)N)C(=O)N[C@H](C(=O)N[C@@H](CCCCN)C(=O)N[C@H](C(=O)N[C@@H](CCCNC(=N)N)C(=O)N[C@H](C(=O)N[C@@H](CCCCN)C(N)=O)C(C)C)C(C)C)C(C)C)C(C)C)C(C)C [(VRVK)3-NH2] (H-VRVKVRVKVRVK-NH2; N-terminus assumed)
C. albicans [1]
  MIC C. albicans: 31.3 µg/mL (≈ 21.4 µM)
S. aureus [2]
  MIC S. aureus: 62.5 µg/mL (≈ 42.7 µM)
E. coli [3]
  MIC E. coli: 15.6 µg/mL (≈ 10.6 µM)
S. epidermidis [4]
  MIC S. epidermidis: 1.0 µg/mL (≈ 0.683 µM)
In vitro [5]
  viability at 24 h, 250 µg/mL: > 53%
In vitro [6]
  viability at 24 h, 250 mg/L: 30%
In vitro [6]; HDF dermal fibroblast cells
  viability at 24 h, 250 µg/mL: > 53%
[7]
  GM, geometric mean of MIC values for the 5 microorganisms tested: 34.6 µg/mL
P. aeruginosa [8]
  MIC P. aeruginosa: 62.5 µg/mL (≈ 42.7 µM)

## CC[C@@H](C)[C@@H](N)C(=O)N[C@H](CCCNC(=N)N)C(=O)N[C@@H](C(=O)N[C@H](CCCCN)C(=O)N[C@@H](C(=O)N[C@H](CCCNC(=N)N)C(=O)N[C@@H](C(=O)N[C@H](CCCCN)C(N)=O)[C@H](C)CC)[C@H](C)CC)[C@H](C)CC [IK8-all D, irikirik-NH2] (H-[dI][dR][dI][dK][dI][dR][dI][dK]-NH2; N-terminus assumed)
C. albicans [10]
  MIC C. albicans: 3.9 µg/mL (≈ 3.76 µM)
S. aureus [11]
  MIC S. aureus: 3.9 µg/mL (≈ 3.76 µM)
[12]
  MBC Vancomycin-resistant Enterococci: 3.9 µg/mL (≈ 3.76 µM)
S. aureus [13]
  MICn/MIC0, fold increase in MIC: 1
C. neoformans
  MBC C. neoformans: 7.8 µg/mL (≈ 7.51 µM)
[14]
  MBC Methicillin-resistant S. aureus: 3.9 µg/mL (≈ 3.76 µM)
[15]
  GM, geometric mean of MIC values for the 5 microorganisms tested: 4.3 µg/mL
[15]; against the various bacteria
  fold reduction in MIC values compared with the L-enantiomer: 2-16 fold
[16]
  killing efficiencies: > 99.9%
[16]; 2
  log reductions in colony counts: more than 3 log
[17]
  surface morphology under FE-SEM: significant membrane damage and corrugation
[18]
  log reductions in intracellular S. aureus colony counts compared to the control: 1.2-1.5 log
E. coli [19]
  MIC E. coli: 3.9 µg/mL (≈ 3.76 µM)
A. baumanni
  MBC A. baumanni: 31.3 µg/mL (≈ 30.1 µM)
P. aeruginosa [20]
  MBC P. aeruginosa: 15.6 µg/mL (≈ 15 µM)
S. epidermidis [21]
  MIC S. epidermidis: 2.0 µg/mL (≈ 1.93 µM)
In vitro [22]
  viability at 48 h: > 80%
E. coli [23]
  MICn/MIC0: 1
[24]
  folds reduction in MBCs compared with the L-enantiomer: 4-8 folds
P. aeruginosa [25]
  MIC P aeruginosa: 7.8 µg/mL (≈ 7.51 µM)
Trypsin and proteinase K
  antimicrobial activity after protease treatment: retained its antibacterial activities
  structural integrity after protease treatment, MALDI-TOF MS: remained intact
[26]; strain number 1140
  MIC M. tuberculosis: 15.6 µg/mL (≈ 15 µM)
[26]; strain number 1146
  MIC M. tuberculosis: 15.6 µg/mL (≈ 15 µM)
Rabbit red blood cells
  HC10, haemolysis concentration 10%: lowest peptide concentration that induces ≧10% haemolysis: 1750 mg/L
